This note sets out measurements from US5990083A, “Multicatalytic protease inhibitors” (Cephalon, Inc., priority 1997, dated 1999).

What is called IC50 is the concentration that inhibits the measured activity by half. Read a low IC50 as greater potency.

Values joined by “and” are separate entries in the source; they are usually repeats but may differ in a detail not shown here. Equal values may be shown once.

This assay deals with T1, human MCP (Homo sapiens, UniProt P28074+Q99436).
T1 construct: Samples of human liver and brain obtained post-mortem were used for isolation and partial purification of MCP; from tissue; host or cells: human liver and brain, post-mortem
The assay can be described thus: Determination of IC50 values for MCP inhibitors (chymotrypsin-like or trypsin-like activity of MCP). The format is biochemical. The note with it: for % Inhibition (1 μM): 1 μM inhibitor. The procedure: Samples of human liver and brain obtained post-mortem were used for isolation and partial purification of MCP by ion-exchange chromatography, ammonium sulfate precipitation, and gel filtration (e.g., Driscoll and Goldberg, Proc. Natl. Acad. Sci. 86, 787-791 (1989); Yamamoto et al., Biochim, Biophys. Acta 882, 297-304 (1986). For either starting material, tissue was homogenized in 10 volumes of 20 mM Tris-HCl (pH 7.5) containing 20% glycerol. Following centrifugation at 40,000×g for 30 minutes, proteolytic activity of the chymotrypsin-like component of MCP could be detected in the supernatant (see below). The supernatant was fractionated on a DEAE-Sepharose Fast Flow column equilibrated in homogenization buffer. For each liter of supernatant, 250 ml of resin was used. Following sample loading, the column was washed with ^~ 10 volumes homogenization buffer, and proteins were eluted with a linear NaCl gradient of from 0 to 400 mM (21 for 250 ml resin). Fractions were assayed for MCP activity, and the active fractions were pooled and subjected to precipitation with (NH4)2 SO4 at 80% saturation. Precipitated proteins were collected by centrifugation, resuspended in homogenization buffer, and loaded on a Sephacryl S300HR column (500 ml resin volume) that had been standardized using bovine serum albumin (68 kDa). A single peak of MCP activity was eluted with a molecular weight of ^~ 650 kDa. This preparation was free of other measurable proteolytic activities and maintained its MCP activity upon storage at 4° C. for >6 months. This preparation was used for most of the experiments. Further fractionation of the preparation on an hydroxyapatite-Ultrogel column (Yamamoto et al., supra) yielded a more highly purified enzyme, which according to denaturing SDS-polyacrylamide gel electrophoresis was comprised of the expected >10 subunits ranging in Mr from 20 to 35 kDa.
The procedure for MPC isolation described above generated an enzyme complex whose proteolytic activities were latent, but which could be activated by addition of low concentrations (0.02-0.05%) of SDS (Yamamoto et al., supra). The chymotrypsin-like activity was assayed according to the following procedure: in 96 well microtiter plates, human MCP was diluted 4 to 10-fold in homogenization buffer containing 0.04% SDS. A calorimetric substrate MeOSuc-EVKM-para-nitroanilide (methoxysuccinyl-Glu-Val-Lys-Met-pNa), purchased from Bachem Bioscience Inc., King of Prussia, Pennsylvania was added to a final concentration of 100 μM from a stock solution of 10 mM in dimethylsulfoxide. Reaction volumes were 200 μl per well. After incubation for various periods of time at 37° C., the concentration of free pNa was determined on a Biotech EL-340 microplate reader, reading absorption at 490 nm. Protease activity was determined under conditions in which substrate hydrolysis increased linearly with time and the change in absorption was proportional to the concentration of free pNa. Alternatively, a fluorogenic substrate was used, methoxysuccinyl-Phe-Leu-Phe-amidomethylcoumarin (Enzyme Systems Products, Dublin, Calif.), and the change in fluorescence monitored at an excitation of 390 nm, and an emission at 460 nm.
The trypsin-like activity of human MCP was assayed as described above with the following modifications. Reactions were carried out in Tris-glycerol buffer (pH 9.5) supplemented with 1 mM 2-mercaptoethanol, and the substrate was a fluorogenic substrate, Benzyloxycarbonyl--Phe--Arg--AMC (100 μM).
After incubation for various periods of time at 37° C., the concentration of free AMC was determined on a Fluoroskan II spectrofluorimeter with an excitation filter of 390 nm and an emission filter of 460 nm. Protease activity was determined under conditions in which substrate hydrolysis increased linearly with time and the change in fluorescence was proportional to the concentration of free AMC. […]

The mark [1] stands for this setting: Table 5, first series, enzyme incubated with inhibitor 15 minutes at 37° C. prior to substrate.

`CC(C)C[C@H](NC(=O)[C@H](CCCNC(=N)N[N+](=O)[O-])NC(=O)C(CCCCCCCCC#N)C1CCCC1)C(=O)CCl` (single isomer, unassigned; isomer a) [39 (Isomer a), 10-Cyano-2-cyclopentyl-decanoyl-N^g-nitro-L-arginyl-L-leucine chloromethylketone]: where the note is “Table 7”, the IC50 is over 1000 nM and the “% Inhibition (1 μM)” value was 31%.
As to `CCNC(=O)C(=O)[C@H](CC(C)C)NC(=O)[C@H](CCCNC(N)=N[N+](=O)[O-])NC(=O)C(CCCCCCCCC#N)C1CCCC1` (single isomer, unassigned; isomer a) [41 (Isomer a), 10-Cyano-2-Cyclopentyl-decanoyl-N^g-nitro-L-arginyl-L-leucine alpha-ketoethylamide], for the setting “Table 7”, the midpoint of inhibition, the IC50, lay at 22 nM and the “% Inhibition (1 μM)” value worked out at 99%.
With `CC(C)C[C@H](NC(=O)[C@H](CCCNC(=N)N[N+](=O)[O-])NC(=O)C(CCCCCCCCC#N)C1CCCC1)C(=O)CCl` (single isomer, unassigned; isomer b) [39 (Isomer b), 10-Cyano-2-cyclopentyl-decanoyl-N^g-nitro-L-arginyl-L-leucine chloromethylketone], under “Table 7”, the IC50 was over 1000 nM and the “% Inhibition (1 μM)” value was 21%.
In turn, `Cc1c(C)c(S(=O)(=O)NC(=N)NCCC[C@H](NC(=O)C(CCCCCCCCC#N)C2CCCC2)C(=O)N[C@H](C=O)CC(C)C)c(C)c2c1OC(C)(C)CC2` (stereo partly drawn) [Compound 15, 10-Cyano-2-cyclopentyl-decanoyl-N^g-(2,2,5,7,8-pentamethylchroman-6-sulfonyl)-L-arginyl-L-leucinal] displayed an IC50 under setting [1] of 20 nM.
Under setting [1], `CON=C[C@H](CC(C)C)NC(=O)[C@H](CCCN=C(N)N[N+](=O)[O-])NC(=O)C(CCCCCCCCC#N)C1CCCC1` (stereo partly drawn) [Compound 18, 10-cyano-2-cyclopentyl-decanoyl-N^g-nitro-L-arginyl-L-leucinal-O-methyloxime] registered a half-inhibitory concentration (IC50) of 700 nM.
On to `COC(=O)CCCCCCCC(C(=O)N[C@@H](CCCNC(N)=NS(=O)(=O)c1c(C)cc(OC)c(C)c1C)C(=O)N[C@H](C=O)CC(C)C)C1CCCC1` (stereo partly drawn) [Compound 21, 9-Methoxycarbonyl-2-cyclopentyl-nonanoyl-N^g-(4-methoxy-2,3,6-trimethyl-benzene-1-sulfonyl)-L-arginyl-L-leucinal], for which it took 30 nM to reach half-maximal inhibition under setting [1] (IC50). Against the preceding compound, the IC50 is about 23-fold lower.
On to `CCCC[C@@H](C=O)NC(=O)[C@H](CCCNC(=N)NS(=O)(=O)c1c(C)c(C)c2c(c1C)CCC(C)(C)O2)NC(=O)C(CCCCCCCC(=O)OC)C1CCCC1` (stereo partly drawn) [Compound 22, 9-Methoxycarbonyl-2-cyclopentyl-nonanoyl-N^g-(2,2,5,7,8-pentamethylchroman-6-sulfonyl)-L-arginyl-L-norleucinal], for which 110 nM corresponded to half-maximal inhibition under setting [1] (IC50).
On the same count and under the same terms, the figure for `COC(=O)CCCCCCCC(C(=O)N[C@@H](CCCNC(N)=N[N+](=O)[O-])C(=O)N[C@H](C=O)CC(C)C)C1CCCC1` (stereo partly drawn) [Compound 23, 9-Methoxycarbonyl-2-cyclopentyl-nonanoyl-N^g-nitro-L-arginyl-L-leucinal] is 5 nM.
Consider `CC(C)C[C@@H](C=O)NC(=O)[C@H](CCCNC(=N)N[N+](=O)[O-])NC(=O)C(CCCCCCCCNS(=O)(=O)C(F)(F)F)C1CCCC1` (stereo partly drawn) [Compound 25, 10-(trifluoromethanesulfonyl)amino-2-cyclopentyl-decanoyl-N^g-nitro-L-arginyl-L-leucinal], for which the IC50 under setting [1] is 8 nM and 5 nM.
Under setting [1], `COC(=O)CCCCCCCC(=O)N[C@@H](CCCN=C(N)N[N+](=O)[O-])C(=O)N[C@H](C=O)CC(C)C` [Compound 26, Monomethylazelayl-N^g -nitro-L-arginyl-L-leucinal] had an IC50 of 40 nM.
`COC(=O)CCCCCCCC(=O)N[C@@H](CCCNC(=N)NS(=O)(=O)c1c(C)c(C)c2c(c1C)CCC(C)(C)O2)C(=O)N[C@H](C=O)CC(C)C` [Compound 28, Monomethylazelayl-N^g-(2,2,5,7,8-pentamethylchroman-6-sulfonyl)-L-arginyl-L-leucinal] displayed an IC50 under setting [1] of 20 nM.
